We go through one molecule from ChEMBL document CHEMBL4219054, “Induction of apoptosis by pyrazolo[3,4-d]pyridazine derivative in lung cancer cells via disruption of Bcl-2/Bax expression balance” (Bioorg Med Chem, 2018).

For assay [1], the system named is HepG2. Put plainly: Antiproliferative activity against human HepG2 cells after 48 hrs by MTT assay. The format is functional, cell-based. Background: Tetrazolium dyes change colour on reduction, which living cells bring about.
In assay [2] the test system is HCT-116. Put plainly: Antiproliferative activity against human HCT116 cells after 48 hrs by MTT assay. The class given is functional, cell-based.
Assay [3] has as its system A549. Put plainly: Antiproliferative activity against human A549 cells after 48 hrs by MTT assay. The class given is functional, cell-based.
A short description of assay [4]: Antiproliferative activity against human HFB4 cells after 48 hrs by MTT assay. The format is cell-based.
Assay [5] relates to WI-38. Put plainly: Antiproliferative activity against human WI38 cells after 48 hrs by MTT assay. The class given is cell-based. The note with it: WI-38, 48 h.
Assay [6] has as its system A549. Description: Cell cycle arrest in human A549 cells assessed as accumulation at sub G1 phase at 0.067 mM after 48 hrs by propidium iodide staining-based flow cytometric analysis (reference value: 0.77%). The format is functional. (In general: In flow cytometry, cells or beads pass a laser one at a time.)
The subject of assay [7] is A549. Description: Cell cycle arrest in human A549 cells assessed as accumulation at G0/G1 phase at 0.067 mM after 48 hrs by propidium iodide staining-based flow cytometric analysis (reference value: 66.85%). The format is functional.
The test system of assay [8] is A549. Description: Cell cycle arrest in human A549 cells assessed as accumulation at S phase at 0.067 mM after 48 hrs by propidium iodide staining-based flow cytometric analysis (reference value: 27.04%). The format is functional.
The subject of assay [9] is A549. Put plainly: Cell cycle arrest in human A549 cells assessed as accumulation at G2/M phase at 0.067 mM after 48 hrs by propidium iodide staining-based flow cytometric analysis (reference value: 5.34%). The class given is functional.
In assay [10] the test system is A549. Description: Induction of apoptosis in human A549 assessed as viable cells at 0.067 mM after 48 hrs by Annexin-V FITC/propidium iodide staining-based flow cytometric analysis (reference value: 97.42%). The format is functional. The note with it: A549, 48 h, read-out: Activity.
Assay [11] has as its system A549. Description: Induction of apoptosis in human A549 assessed as early apoptotic cells at 0.067 mM after 48 hrs by Annexin-V FITC/propidium iodide staining-based flow cytometric analysis (reference value: 0.36%). The format is functional.
The subject of assay [12] is A549. Description: Induction of apoptosis in human A549 assessed as late apoptotic cells at 0.067 mM after 48 hrs by Annexin-V FITC/propidium iodide staining-based flow cytometric analysis (reference value: 0.21%). The class given is functional.
The test system of assay [13] is A549. Put plainly: Induction of apoptosis in human A549 assessed as necrotic cells at 0.067 mM after 48 hrs by Annexin-V FITC/propidium iodide staining-based flow cytometric analysis (reference value: 0.2%). The class given is functional.
For assay [14], the system named is A549. Description: Induction of apoptosis in human A549 assessed as upregulation of caspase-3 mRNA expression level at 0.067 mM by RT-PCR analysis relative to control. The format is functional.
Assay [15] deals with A549. Description: Induction of apoptosis in human A549 assessed as upregulation of Bax mRNA expression level at 0.067 mM by RT-PCR analysis relative to control. The format is functional.
In assay [16] the test system is A549. Put plainly: Induction of apoptosis in human A549 assessed as upregulation of p53 mRNA expression level at 0.067 mM by RT-PCR analysis relative to control. The format is functional.
The test system of assay [17] is A549. Description: Induction of apoptosis in human A549 assessed as inhibition of Bcl2 mRNA expression level at 0.067 mM by RT-PCR analysis relative to control. The format is functional.

SMILES strings stand for the structures.

As to `O=c1oc2ccc3ccccc3c2cc1-c1n[nH]c(=O)c2nn(-c3ccccc3)cc12`, the Activity result in assay [1] is “Dose-dependent effect”; in assay [2], “Dose-dependent effect”; in [3], “Dose-dependent effect”; in assay [6], 11.42%; in [7] it was 56.88%; in assay [8], 16.59%. For the same molecule, the Activity in assay [9] turned out to be 15.11%; in assay [11] it was 4.69%; in assay [12], 5.37%; in assay [13] it was 1.36%. The IC50 – broadly, the midpoint of a concentration-inhibition curve – turned out to be 115 µM in [1] (HepG2, 48 h); 130 µM in assay [2] (HCT-116, 48 h); 67 µM in assay [3] (A549, 48 h); 281 µM in [4]; 219 µM in [5]. For the same molecule, the viability at 67 µM in assay [10] was found to be 86.9%. In addition, the “fold change (FC)” value in assay [14] is given as 7.19; in [15] it was 7.28; in [16] it was 5.08; in [17], 0.22.
